# Measurements as given in patent US20160136284A1, “GLIOMA TREATMENT” (priority 2012, published 2016).
# Entries after “also recorded” stand apart in the source; their conditions may differ.
# Tests used:
# [1] = Tissue distribution and half-life of carboplatin after CED into rat brain (LA-ICP-MS); type: in vivo
# Method: Male Wistar rats (Charles River, UK) were group-housed and allowed to acclimatise prior to experimental procedures. Rats weighing 225 to 275 g were anaesthetised with an intraperitoneal dose of medetomidine (Dormitor; 0.4 mg/kg; Pfizer Animal Health, Kent, UK) and ketamine (Ketaset; 100 mg/kg; Pfizer, UK) and placed in a stereotactic frame (Stoelting Co, Wood Dale, Ill. USA). A linear incision was made between the glabella and the occiput and the skull exposed. Burr holes with a diameter of approximately 2 mm were drilled 1.0 mm anterior and 2.5 mm lateral to the bregma and cannulae were inserted to a depth of 2.5 mm below the dura. All cannulae were pre-primed with either saline or carboplatin and the desired dose prior to insertion into the brain. Every attempt was made to ensure that no air bubbles were present in the infusion cannula. Infusions of 2.5 μl of carboplatin at specific concentrations (outlined in Table 1) were conducted at a rate of 5 μl/min. Following infusion completion, the cannula was left in-situ for 10 min before being withdrawn at a rate of 1 mm/min. The wound was then closed with 5.0 Vicryl (Ethicon, Gargrave, UK) a dose of intramuscular buprenorphine was administered (Vetergesic; 0.03 mg/kg; Alstoe Animal Health, York, UK) and the anaesthetic was reversed with an intraperitoneal dose of atipamezole hydrochloride (Antisedan; 5 mg/kg; Pfizer, UK). […]
# Resultant data (.csv files) was in the form of signal response for each monitored isotope (separate columns) against time; as such, ion-responses could be co-ordinated to form 2D elemental distribution maps, using the Graphis software package (Kylebank Software Ltd, Ayr, UK).
# The laser ablation (LA) system was configured to perform multiple, parallel line-rastering of sections. […] Isotopes (^13C, ^57Fe, ^66Zn, ^157Gd and ^195Pt) were monitored in a time-resolved mode and selected on the basis of high-percentage abundance and minimal isobaric and polyatomic interferences. […]
# [2] = Carboplatin toxicity in rat brain after CED (clinical, H&E, GFAP, DiI); type: in vivo
# Method: Male Wistar rats (Charles River, UK) were group-housed and allowed to acclimatise prior to experimental procedures. Rats weighing 225 to 275 g were anaesthetised with an intraperitoneal dose of medetomidine (Dormitor; 0.4 mg/kg; Pfizer Animal Health, Kent, UK) and ketamine (Ketaset; 100 mg/kg; Pfizer, UK) and placed in a stereotactic frame (Stoelting Co, Wood Dale, Ill. USA). A linear incision was made between the glabella and the occiput and the skull exposed. Burr holes with a diameter of approximately 2 mm were drilled 1.0 mm anterior and 2.5 mm lateral to the bregma and cannulae were inserted to a depth of 2.5 mm below the dura. All cannulae were pre-primed with either saline or carboplatin and the desired dose prior to insertion into the brain. Every attempt was made to ensure that no air bubbles were present in the infusion cannula. Infusions of 2.5 μl of carboplatin at specific concentrations (outlined in Table 1) were conducted at a rate of 5 μl/min. Following infusion completion, the cannula was left in-situ for 10 min before being withdrawn at a rate of 1 mm/min. The wound was then closed with 5.0 Vicryl (Ethicon, Gargrave, UK) a dose of intramuscular buprenorphine was administered (Vetergesic; 0.03 mg/kg; Alstoe Animal Health, York, UK) and the anaesthetic was reversed with an intraperitoneal dose of atipamezole hydrochloride (Antisedan; 5 mg/kg; Pfizer, UK). At predetermined time-points (see Table 1), animals were perfusion fixed with 100 mL of PBS followed by 100 mL of 4% paraformaldehyde (PFA; Fisher Scientific, UK) in PBS (pH 7.4). The brain was then removed from the skull and placed in 4% PFA for 48 hours and then cryoprotected in 30% sucrose (Melford Laboratories, Ipswich, UK) in PBS prior to sectioning.
# Rat brains were cut into 35 μm thick coronal sections using a Leica CM1850 cryostat (Leica Microsystems, Wetzlar, Germany) at −20° C. For haematoxylin and eosin staining, fixed sections were mounted on gelatine-subbed slides. Sections were submerged in 4% PFA for 20 minutes, dehydrated and then stained with haematoxylin and eosin (Cell Path, Hemel Hempstead, UK) according to standard protocols. Following this, sections were coverslipped with Pertex mounting medium (Cell Path, UK) and allowed to dry in the fumehood overnight before imaging with a Leica CTR 5500 microscope (Leica Microsystems, Germany). Sections were assessed by light microscopy to ensure that the cannula track in each brain terminated in the corpus callosum.
# For fluorescent immunohistochemistry, free-floating sections were washed with PBS for 5 min×3. Sections were then blocked in PBS plus 0.1% triton-x-100 (Sigma Aldrich, UK) containing 10% normal donkey serum (Sigma Aldrich, UK) for 1 hour at RT. Sections were then washed with PBS for 5 min. […]
# [3] = Glioma tissue concentration after high-dose intravenous delivery (Whittle et al.); type: in vivo
# [4] = Prolonged intracranial (brainstem) carboplatin infusions in primates (Strege et al.); type: in vivo
# GBM = settings: 4 consecutive sets of infusions at 0.03 mg/ml, assuming 50% kill per set
# Method: This is a phase I, single centre, dose-escalation study, of carboplatin administered by CED, into the peritumoural region of patients with recurrent or progressive GBM, following tumour resection. The study will incorporate six cohorts, with three patients in each cohort.
# Following tumour resection (study day 0), patients undergo a baseline MRI scan (study day 10-21), followed within 24 hours by catheter implantation. For patients with progressive multifocal disease in whom re-resection is not felt to be appropriate, catheters are implanted following a baseline MRI scan. Prior to catheter implantation, patients are loaded with phenytoin (unless allergic) and will be kept on this anticonvulsant during the duration of their infusions. In the event of allergy to phenytoin, patients are administered an alternative anticonvulsant during this time period. […] Catheter tip location is determined at the operating surgeon's discretion, and will be based on diffusion imaging-based fibre-tracking using iPlan Flow (Brainlab, Germany) and experience gained in animal models and previous patients. Up to four catheters are implanted per patient under general anaesthetic and attached to connector tubing, which will be tunnelled to a subcutaneous access device incorporating in-line bacterial filters, implanted in the infraclavicular fossa. […]
# [5] = cited from earlier work
# [6] = up to 0.9 mg/ml, vs 0.9% saline
compound,measurement,setting,value
N.N.O=C([O-])C1(C(=O)[O-])CCC1.[Pt+2] [carboplatin],distribution in rat brain at 0 hours post-infusion,[1]; 0.03 mg/ml by CED into corpus callosum,widespread distribution
same,time platinum detectable by LA-ICP-MS,[1]; 0.03 mg/ml by CED into rat corpus callosum,up to 24 hours
same,time carboplatin remains in the brain,"[1]; rat, CED",at least 24 hours
same,histological tissue toxicity (haematoxylin and eosin),"[2]; 0.03-0.9 mg/ml, up to 30 days",no histological evidence of tissue disruption; also recorded: No evidence of tissue toxicity
same,clinical tolerability / toxicity,"[2]; single CED infusions, concentrations of up to 0.9 mg/ml",well tolerated; also recorded: no clinical or histological evidence of toxicity
same,gliosis in white matter (GFAP immunostaining),[2]; [6],minimal evidence of gliosis
same,white matter tract integrity (DiI staining),[2]; [6],no loss of white matter tract integrity
same,peak glioma tissue concentration as share of IC50 (meta-analysis of chemosensitivity assays),[3],40%
same,lowest concentration likely to lead to significant toxicity,"[4]; extrapolated from Strege et al, assuming patient weight of 70 kg",0.22 mg/mL
same,"ratio of serum concentration, intravenous in humans vs intracranial in primates","[4]; in vivo, iv",more than 5 thousand
same,theoretical tumour cell kill,GBM,94%
same,serum concentration,[5]; intracranial infusions of 0.25 mg/kg in primates,6 ng/mL
same,clinical toxicity,"[5]; one-month long brainstem infusions, 0.075 mg/kg",minimal clinical evidence of toxicity
